{"source": "patent US20250151727A1", "about": "“(S)-ABSCISIC ACID FOR REDUCING FRUIT DROP” (Valent BioSciences LLC, priority 2023, published 2025)", "assay_type_in_all_cases": "in vivo", "key": {"[1]": {"system": "'Nadorcott' mandarin trees", "assay": "Fruit drop after foliar spray, 'Nadorcott' mandarin, Piketberg (Example 3)", "settings": "for # Fruit per Tree / % Change in # Fruit per Tree: 28 days after 100% petal drop; for % Change in # Fruit per Tree: vs untreated control", "procedure": "ProTone™ SG or Excelero™ SL was applied to mature ‘Nadorcott’ mandarin trees in a commercial orchard near Piketberg (33°04′46.3″S 18°50′04.7″E) in the Western Cape Province of South Africa. The experiment consisted of 5 trees per plot. S-ABA in the form of ProTone™ SG was applied as a foliar spray at 18.5, 37 and 75 ppm and at 37 ppm in the form of Excelero™ SL and compared to an untreated control at 2.4 liters per tree. All treatments were applied with Villa 51® at a rate of 6 milliliters per 100 liters of water. Treatments were applied 28 days after 100% petal drop on 8 Nov. 2022. See Results in Table 3, below."}, "[2]": {"system": "'Orri' mandarin trees", "assay": "Fruit drop, 'Orri' mandarin, Mpumalanga (Example 6)", "settings": "for # Fruit per Tree / % Change in # Fruit per Tree: Excelero SL; for % Change in # Fruit per Tree: vs untreated control", "description": "Excelero™ SL was applied to mature ‘Orri’ mandarin trees in a commercial orchard near Mpumalanga, South Africa. The experiment consisted of a completely randomized design. S-ABA was applied at 20, 40 and 80 ppm in the form of Excelero™ SL and compared to an untreated control. All treatments were applied with Villa 51® at a rate of 6 milliliters per 100 liters of water. Treatments were applied 14, 21 and 28 days after 100% petal drop (“DAP”). See Results in Table 6, below."}, "[3]": {"system": "'Midknight Valencia' sweet orange trees", "assay": "Fruit drop after foliar spray, 'Midknight Valencia' sweet orange, Porterville (Example 1)", "settings": "for # Fruit per Tree / % Change in # Fruit per Tree: ProTone SG, 28 days after 100% petal drop; for % Change in # Fruit per Tree: vs untreated control", "procedure": "ProTone™ SG was applied to mature ‘Midknight Valencia’ sweet orange trees in a commercial orchard near Porterville (33°08′37.54″S, 18°59′35.90″E) in the Western Cape Province of South Africa. The experiment consisted of a completely randomized design and consisted of 10 single-tree replicates. S-ABA was applied as a foliar spray at 75, 150 and 300 parts per million (“ppm”) and compared to an untreated control (only water) at 2 liters per tree. All treatments were applied with a non-ionic wetting agent (Villa 51® having the active ingredient isotridecanol and available from Villa Crop Protection (Pty) Ltd) at a rate of 6 milliliters per 100 liters of water. Treatments were applied 28 days after 100% petal drop on 31 Oct. 2019. See Results in Table 1, below."}, "[4]": {"system": "'Orri' mandarin trees", "assay": "Fruit drop after foliar spray, 'Orri' mandarin, Piketberg, open and shade-netted orchards (Example 2)", "settings": "150 ppm; for # Fruit per Tree / % Change in # Fruit per Tree: ProTone SG, 28 days after 100% petal drop", "procedure": "ProTone™ SG was applied to mature ‘Orri’ mandarin trees in a commercial orchard near Piketberg (33°04′46.3″S 18°50′04.7″E) in the Western Cape Province of South Africa. Two trials were conducted, one in an orchard covered with permanent shade netting, and the other in an open orchard. The experiment consisted of 5 trees per plot for each of covered and open orchard. S-ABA was applied as a foliar spray at 150 ppm and compared to an untreated control at 3.4 liters per tree for the covered orchard and 2.8 liters per tree for the open orchard. All treatments were applied with Villa 51® at a rate of 6 milliliters per 100 liters of water. Treatments were applied 28 days after 100% petal drop on 29 Nov. 2021. See Results in Table 2, below."}, "[5]": {"system": "'Leanri' mandarin trees", "assay": "Fruit drop, 'Leanri' mandarin, Ashton, all plots with Falgro and girdling (Example 5)", "settings": "for # Fruit per Tree / % Change in # Fruit per Tree: 37 ppm, 21 days after 100% petal drop; for % Change in # Fruit per Tree: vs untreated control", "procedure": "Excelero™ SL was applied to mature ‘Leanri’ mandarin trees in a commercial orchard near Ashton (33°50′57″S, 20°02′15″E) in the Western Cape Province of South Africa. The experiment consisted of 5 trees per plot. S-ABA was applied at 37 ppm in the form of ProTone™ SG and Excelero™ SL and compared to an untreated control at 2.4 liters per tree. All plots received application of Falgro® at 70% and 90% petal fall and a girdling action. All treatments were applied with Villa 51® at a rate of 6 milliliters per 100 liters of water. Treatments were applied 21 days after 100% petal drop on 8 Nov. 2023. See Results in Table 5, below."}}, "data": [{"substance": "(S)-abscisic acid [S-ABA]", "values": [{"measurement": "# Fruit per Tree", "setting": "[1]; 18.5 ppm, ProTone SG", "value": 793}, {"measurement": "% Change in # Fruit per Tree", "setting": "[1]; 18.5 ppm, ProTone SG", "value": 3, "unit": "%"}, {"measurement": "effect on fruit drop as compared to untreated control", "setting": "[1]; 37 and 75 ppm", "value": "reduced fruit drop"}, {"measurement": "# Fruit per Tree", "setting": "[1]; 37 ppm, Excelero SL", "value": 1010}, {"measurement": "% Change in # Fruit per Tree", "setting": "[1]; 37 ppm, Excelero SL", "value": 32, "unit": "%"}, {"measurement": "# Fruit per Tree", "setting": "[1]; 37 ppm, ProTone SG", "value": 841}, {"measurement": "% Change in # Fruit per Tree", "setting": "[1]; 37 ppm, ProTone SG", "value": 10, "unit": "%"}, {"measurement": "# Fruit per Tree", "setting": "[1]; 75 ppm, ProTone SG", "value": 909}, {"measurement": "% Change in # Fruit per Tree", "setting": "[1]; 75 ppm, ProTone SG", "value": 18, "unit": "%"}, {"measurement": "effect on fruit drop as compared to untreated control", "setting": "[2]; 20, 40 and 80 ppm at each of 14, 21 and 28 days after 100% petal drop", "value": "reduced fruit drop"}, {"measurement": "# Fruit per Tree", "setting": "[2]; 20 ppm @ 14 DAP", "value": 222}, {"measurement": "% Change in # Fruit per Tree", "setting": "[2]; 20 ppm @ 14 DAP", "value": 17, "unit": "%"}, {"measurement": "# Fruit per Tree", "setting": "[2]; 20 ppm @ 21 DAP", "value": 257}, {"measurement": "% Change in # Fruit per Tree", "setting": "[2]; 20 ppm @ 21 DAP", "value": 36, "unit": "%"}, {"measurement": "# Fruit per Tree", "setting": "[2]; 20 ppm @ 28 DAP", "value": 196}, {"measurement": "% Change in # Fruit per Tree", "setting": "[2]; 20 ppm @ 28 DAP", "value": 4, "unit": "%"}, {"measurement": "# Fruit per Tree", "setting": "[2]; 40 ppm @ 14 DAP", "value": 222}, {"measurement": "% Change in # Fruit per Tree", "setting": "[2]; 40 ppm @ 14 DAP", "value": 17, "unit": "%"}, {"measurement": "# Fruit per Tree", "setting": "[2]; 40 ppm @ 21 DAP", "value": 234}, {"measurement": "% Change in # Fruit per Tree", "setting": "[2]; 40 ppm @ 21 DAP", "value": 24, "unit": "%"}, {"measurement": "# Fruit per Tree", "setting": "[2]; 40 ppm @ 28 DAP", "value": 250}, {"measurement": "% Change in # Fruit per Tree", "setting": "[2]; 40 ppm @ 28 DAP", "value": 32, "unit": "%"}, {"measurement": "# Fruit per Tree", "setting": "[2]; 80 ppm @ 14 DAP", "value": 255}, {"measurement": "% Change in # Fruit per Tree", "setting": "[2]; 80 ppm @ 14 DAP", "value": 35, "unit": "%"}, {"measurement": "# Fruit per Tree", "setting": "[2]; 80 ppm @ 21 DAP", "value": 213}, {"measurement": "% Change in # Fruit per Tree", "setting": "[2]; 80 ppm @ 21 DAP", "value": 13, "unit": "%"}, {"measurement": "# Fruit per Tree", "setting": "[2]; 80 ppm @ 28 DAP", "value": 207}, {"measurement": "% Change in # Fruit per Tree", "setting": "[2]; 80 ppm @ 28 DAP", "value": 10, "unit": "%"}, {"measurement": "effect on fruit drop as compared to untreated control", "setting": "[3]; 75 and 150 ppm", "value": "reduced fruit drop"}, {"measurement": "# Fruit per Tree", "setting": "[3]; 75 ppm foliar spray", "value": 413}, {"measurement": "% Change in # Fruit per Tree", "setting": "[3]; 75 ppm foliar spray", "value": 11, "unit": "%"}, {"measurement": "# Fruit per Tree", "setting": "[3]; 150 ppm foliar spray", "value": 444}, {"measurement": "% Change in # Fruit per Tree", "setting": "[3]; 150 ppm foliar spray", "value": 20, "unit": "%"}, {"measurement": "effect on fruit drop as compared to untreated control", "setting": "[3]; 300 ppm", "value": "increasing fruit drop"}, {"measurement": "# Fruit per Tree", "setting": "[3]; 300 ppm foliar spray", "value": 351}, {"measurement": "% Change in # Fruit per Tree", "setting": "[3]; 300 ppm foliar spray", "value": "−5", "unit": "%"}, {"measurement": "effect on fruit drop as compared to untreated control", "setting": "[4]", "value": "increased fruit drop"}, {"measurement": "# Fruit per Tree", "setting": "[4]; no shade (open orchard)", "value": 397}, {"measurement": "% Change in # Fruit per Tree", "setting": "[4]; no shade (open orchard), vs untreated control (no shade)", "value": "−28", "unit": "%"}, {"measurement": "# Fruit per Tree", "setting": "[4]; shade (permanent shade netting)", "value": 82}, {"measurement": "% Change in # Fruit per Tree", "setting": "[4]; shade (permanent shade netting), vs untreated control (shade)", "value": "−78", "unit": "%"}, {"measurement": "effect on fruit drop as compared to untreated control", "setting": "[5]; 37 ppm at 21 days after 100% petal drop", "value": "reduced fruit drop"}, {"measurement": "# Fruit per Tree", "setting": "[5]; Excelero SL", "value": 430}, {"measurement": "% Change in # Fruit per Tree", "setting": "[5]; Excelero SL", "value": 28, "unit": "%"}, {"measurement": "# Fruit per Tree", "setting": "[5]; ProTone SG", "value": 398}, {"measurement": "% Change in # Fruit per Tree", "setting": "[5]; ProTone SG", "value": 19, "unit": "%"}]}]}
